In PubChem BioAssay AID1963840 (Molecular Pharmacology Branch, DTP, NCI, 2024):

System: 695427-040-R-J1-PDC complex spheroid viability
Test: Anticancer human tumor 695427-040-R-J1-PDC patient-derived colon adenocarcinoma cell line growth inhibition [POLQ]
Conditions: for IC50: curve of first compound; for viability, T/C: stronger effect = lower value
In short: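 PDC + HUVEC + MSC complex spheroids; POLQ inhibitors ± partner drugs; top conc. at/near clinical Cmax, else 10 microM (SN-38 1 microM), half-log dilutions; 37 degrees C, 5% CO2.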

[1] = second compound 0.0316 µM, first compound 0.00316 µM
[2] = second compound 0.0316 µM, first compound 0.01 µM
[3] = second compound 0.0316 µM, first compound 0.0316 µM
[4] = second compound 0.0316 µM, first compound 0.1 µM
[5] = second compound 0.1 µM, first compound 0.00316 µM
[6] = second compound 0.1 µM, first compound 0.01 µM
[7] = second compound 0.1 µM, first compound 0.0316 µM
[8] = second compound 0.1 µM, first compound 0.1 µM
[9] = second compound 0.316 µM, first compound 0.00316 µM
[10] = second compound 0.316 µM, first compound 0.01 µM
[11] = second compound 0.316 µM, first compound 0.0316 µM
[12] = second compound 0.316 µM, first compound 0.1 µM
[13] = second compound 1 µM, first compound 0.00316 µM
[14] = second compound 1 µM, first compound 0.01 µM
[15] = second compound 1 µM, first compound 0.0316 µM
[16] = second compound 1 µM, first compound 0.1 µM
[17] = second compound 3.16 µM, first compound 0.00316 µM
[18] = second compound 3.16 µM, first compound 0.01 µM
[19] = second compound 3.16 µM, first compound 0.0316 µM
[20] = second compound 3.16 µM, first compound 0.1 µM
[21] = second compound 10 µM, first compound 0.00316 µM
[22] = second compound 10 µM, first compound 0.01 µM
[23] = second compound 10 µM, first compound 0.0316 µM
[24] = second compound 10 µM, first compound 0.1 µM
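Also: spheroids exposed to compounds for seven days.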
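For viability, T/C in this document: 100% = DMSO vehicle control viability.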

## COc1cccc(OCCCN)c1-c1cc(Nc2cnc(C#N)cn2)n[nH]1 + Cc1cccc(N(C)C(=O)C2C(O)CCN2c2nc(C)cc(C(F)(F)F)c2C#N)c1
Second compound 0.0316 µM
  IC50: > 1000 nM
Second compound 0.1 µM
  IC50: > 1000 nM
Second compound 0.316 µM
  IC50: > 1000 nM
Second compound 1 µM
  IC50: > 1000 nM
Second compound 3.16 µM
  IC50: > 1000 nM
Second compound 10 µM
  IC50: 295 nM
[1]
  viability, T/C: 95.4%
[2]
  viability, T/C: 107%
[3]
  viability, T/C: 96%
[4]
  viability, T/C: 82.5%
Second compound 0.0316 µM, first compound 0.316 µM
  viability, T/C: 70.5%
Second compound 0.0316 µM, first compound 1 µM
  viability, T/C: 51%
[5]
  viability, T/C: 109%
[6]
  viability, T/C: 95.7%
[7]
  viability, T/C: 88.3%
[8]
  viability, T/C: 80.1%
Second compound 0.1 µM, first compound 0.316 µM
  viability, T/C: 71.3%
Second compound 0.1 µM, first compound 1 µM
  viability, T/C: 48.3%
[9]
  viability, T/C: 105%
[10]
  viability, T/C: 97.5%
[11]
  viability, T/C: 87%
[12]
  viability, T/C: 77%
Second compound 0.316 µM, first compound 0.316 µM
  viability, T/C: 67.8%
Second compound 0.316 µM, first compound 1 µM
  viability, T/C: 52.5%
[13]
  viability, T/C: 105%
[14]
  viability, T/C: 95.3%
[15]
  viability, T/C: 91.6%
[16]
  viability, T/C: 75%
Second compound 1 µM, first compound 0.316 µM
  viability, T/C: 70.4%
Second compound 1 µM, first compound 1 µM
  viability, T/C: 51.8%
[17]
  viability, T/C: 100%
[18]
  viability, T/C: 87.8%
[19]
  viability, T/C: 86.5%
[20]
  viability, T/C: 82%
Second compound 3.16 µM, first compound 0.316 µM
  viability, T/C: 69.7%
Second compound 3.16 µM, first compound 1 µM
  viability, T/C: 55.3%
[21]
  viability, T/C: 85.9%
[22]
  viability, T/C: 89.1%
[23]
  viability, T/C: 75.8%
[24]
  viability, T/C: 63.7%
Second compound 10 µM, first compound 0.316 µM
  viability, T/C: 48.8%
Second compound 10 µM, first compound 1 µM
  viability, T/C: 43.5%

## Cn1ncnc1[C@H]1c2n[nH]c(=O)c3cc(F)cc(c23)N[C@@H]1c1ccc(F)cc1 + Cc1cccc(N(C)C(=O)C2C(O)CCN2c2nc(C)cc(C(F)(F)F)c2C#N)c1
Second compound 0.0316 µM
  IC50: > 100 nM
Second compound 0.1 µM
  IC50: > 100 nM
Second compound 0.316 µM
  IC50: > 100 nM
Second compound 1 µM
  IC50: > 100 nM
Second compound 3.16 µM
  IC50: > 100 nM
Second compound 10 µM
  IC50: > 100 nM
Second compound 0.0316 µM, first compound 0.000316 µM
  viability, T/C: 99.1%
Second compound 0.0316 µM, first compound 0.001 µM
  viability, T/C: 97.2%
[1]
  viability, T/C: 102%
[2]
  viability, T/C: 99%
[3]
  viability, T/C: 99.4%
[4]
  viability, T/C: 96.8%
Second compound 0.1 µM, first compound 0.000316 µM
  viability, T/C: 108%
Second compound 0.1 µM, first compound 0.001 µM
  viability, T/C: 91.2%
[5]
  viability, T/C: 98.8%
[6]
  viability, T/C: 102%
[7]
  viability, T/C: 102%
[8]
  viability, T/C: 96.7%
Second compound 0.316 µM, first compound 0.000316 µM
  viability, T/C: 102%
Second compound 0.316 µM, first compound 0.001 µM
  viability, T/C: 102%
[9]
  viability, T/C: 96.6%
[10]
  viability, T/C: 105%
[11]
  viability, T/C: 107%
[12]
  viability, T/C: 94.7%
Second compound 1 µM, first compound 0.000316 µM
  viability, T/C: 99.2%
Second compound 1 µM, first compound 0.001 µM
  viability, T/C: 98.3%
[13]
  viability, T/C: 89.5%
[14]
  viability, T/C: 93.2%
[15]
  viability, T/C: 99.3%
[16]
  viability, T/C: 94.6%
Second compound 3.16 µM, first compound 0.000316 µM
  viability, T/C: 88.9%
Second compound 3.16 µM, first compound 0.001 µM
  viability, T/C: 101%
[17]
  viability, T/C: 92.5%
[18]
  viability, T/C: 101%
[19]
  viability, T/C: 102%
[20]
  viability, T/C: 88.8%
Second compound 10 µM, first compound 0.000316 µM
  viability, T/C: 89.2%
Second compound 10 µM, first compound 0.001 µM
  viability, T/C: 87.4%
[21]
  viability, T/C: 87.8%
[22]
  viability, T/C: 88.6%
[23]
  viability, T/C: 93.3%
[24]
  viability, T/C: 90.4%
